According to paper PMC5734940 (Toxicology and applied pharmacology, 2017):
Read-outs that look alike come from different tables or passages of the source.

Experiments:
[1] = test system: Human iPSC-derived cardiomyocytes (iCell cardiomyocytes); assay: Calcium flux assay; conditions: for Ca2+-flux phenotype in words: text to Figure 3; for Effect on beat frequency (in words): at 10 and/or 30 μM, PAHs; for Typical phenotypic response of calcium-flux signal trace: 30 μM, after 30 minutes of exposure, Figure 3
[2] = test system: Human iPSC-derived cardiomyocytes (iCell cardiomyocytes); type: cell-based
[3] = test system: Human iPSC-derived cardiomyocytes (iCell cardiomyocytes); conditions: 30 min after treatment, JC-10
[4] = test system: Human iPSC-derived cardiomyocytes (iCell cardiomyocytes); conditions: for Cytotoxicity (in words): 24 hrs, concentrations up to 30 μM
[5] = at both short-term (30 min) and longer-term exposures (24 hrs)
[6] = primarily at 24 hrs of exposure, Figure 5

## C[n+]1ccc(-c2ccccc2)cc1.[I-] [1-methyl-4-phenylpyridinium iodide, 1-Methyl-4-phenylpyridinium iodide (MPP+), reference compound]
[1]
  Ca2+-flux phenotype in words: decrease in the peak frequency concomitant with an increase in the average peak width
[2]; [5]
  Cardiotoxic selectivity for peak frequency (selective = ratio ≥3): selective

## Brc1ccc(Oc2cc(Br)c(Br)cc2Br)c(Br)c1 [2,2′,4,4′,5-pentabromodiphenyl ether, 2,2′,4,4′,5-Pentabromodiphenyl ether]
[2]; [5]
  Cardiotoxic selectivity for peak frequency (selective = ratio ≥3): selective

## Brc1ccc(Oc2ccc(Br)cc2Br)c(Br)c1 [2,2′,4,4′-tetrabromodiphenyl ether, 2,2′4,4′-Tetrabromodiphenyl ether]
[2]; [5]
  Cardiotoxic selectivity for peak frequency (selective = ratio ≥3): selective

## CCCCC(CC)COP(=O)(Oc1ccccc1)Oc1ccccc1 (centres unmarked) [2-ethylhexyl diphenyl phosphate, 2- Ethylhexyl diphenyl phosphate (EHDP)]
[3]
  Effect on mitochondria / mitochondria potential (in words): selectively decreased mitochondria potential

## N#CCCNCCC#N [3,3′-iminodipropionitrile, 3,3′-Iminodipropionitrile]
[4]; [6]
  Response in the Calcein AM readout: positive response

## c1cc2c3c(c1)ccc1cccc(c13)C2 [4-H-cyclopenta(d,e,f)phenanthrene, 4-H-Cyclopenta(d,e,f)phenanthrene]
[1]
  Effect on beat frequency (in words): positive but generally weak effect

## C1=Cc2cccc3cccc1c23 [acenaphthylene, Acenaphthylene]
[1]
  Effect on beat frequency (in words): positive but generally weak effect
[2]; [5]
  Cardiotoxic selectivity for peak frequency (selective = ratio ≥3): selective

## c1ccc2cc3ccccc3cc2c1 [anthracene, Anthracene]
[4]; [6]
  Response in the Calcein AM readout: positive response

## c1ccc2cc3c(ccc4ccccc43)cc2c1 [benz(a)anthracene, Benz(a)anthracene]
[4]; [6]
  Response in the Calcein AM readout: positive response
[1]
  Effect on beat frequency (in words): positive but generally weak effect

## c1ccc2c(c1)cc1ccc3cccc4ccc2c1c34 [benzo(a)pyrene, Benzo(a)pyrene]
[1]
  Effect on beat frequency (in words): positive but generally weak effect

## c1ccc2c(c1)-c1cccc3c1c-2cc1ccccc13 [benzo(b)fluoranthene, Benzo(b)fluoranthene]
[4]; [6]
  Response in the Calcein AM readout: positive response
[1]
  Effect on beat frequency (in words): positive but generally weak effect

## c1ccc2c(c1)c1cccc3ccc4cccc2c4c31 [benzo(e)pyrene, Benzo(e)pyrene]
[4]; [6]
  Response in the Calcein AM readout: positive response
[1]
  Typical phenotypic response of calcium-flux signal trace: mild increases in peak frequency
  Effect on beat frequency (in words): positive but generally weak effect

## c1ccc2cc3c(cc2c1)-c1cccc2cccc-3c12 [benzo(k)fluoranthene, Benzo(k)fluoranthene]
[4]; [6]
  Response in the Calcein AM readout: positive response
[1]
  Typical phenotypic response of calcium-flux signal trace: mild increases in peak frequency
  Effect on beat frequency (in words): positive but generally weak effect

## COc1ccc2cc3[n+](cc2c1OC)CCc1cc2c(cc1-3)OCO2 [berberine chloride, Berberine chloride, reference compound]
[1]
  Ca2+-flux phenotype in words: decrease in the peak frequency concomitant with an increase in the average peak width
[2]; [5]
  Cardiotoxic selectivity for peak frequency (selective = ratio ≥3): selective

## O=C(O)CCCC[C@@H]1SC[C@@H]2NC(=O)N[C@@H]21 [biotin, Biotin, reference compound]
[1]
  Typical phenotypic response of calcium-flux signal trace: unaffected regular Ca2+-flux
  Ca2+-flux phenotype in words: regular beating pattern

## CCOP(=S)(OCC)Oc1nc(Cl)c(Cl)cc1Cl [chlorpyrifos, Chlorpyrifos]
[3]
  Effect on mitochondria / mitochondria potential (in words): selectively decreased mitochondria potential

## CC1(C)[C@H](C(=O)O[C@H](C#N)c2cccc(Oc3ccccc3)c2)[C@@H]1C=C(Br)Br [deltamethrin, Deltamethrin]
[2]; [5]
  Cardiotoxic selectivity for peak frequency (selective = ratio ≥3): selective

## CCCCC(CC)COC(=O)c1ccccc1C(=O)OCC(CC)CCCC (centres unmarked) [di(2-ethylhexyl) phthalate, Di(2-ethylhexyl) phthalate]
[2]; [5]
  Cardiotoxic selectivity for peak frequency (selective = ratio ≥3): selective

## CN1C(=O)CN=C(c2ccccc2)c2cc(Cl)ccc21 [diazepam, Diazepam, reference compound]
[1]
  Effect on peak frequency (in words): altered peak frequency

## c1ccc2c(c1)Cc1ccccc1-2 [fluorene, Fluorene]
[1]
  Effect on beat frequency (in words): positive but generally weak effect
[2]; [5]
  Cardiotoxic selectivity for peak frequency (selective = ratio ≥3): selective

## Cl[C@H]1[C@H](Cl)[C@@H](Cl)[C@@H](Cl)[C@H](Cl)[C@H]1Cl [lindane, Lindane]
[3]
  Effect on mitochondria / mitochondria potential (in words): selectively decreased mitochondria potential

## CCCCCC [n-hexane, n-Hexane]
[4]
  Response in the Calcein AM readout: positive response
[4]; human
  POD, Calcein AM readout: below 30 μM
[1]
  Effect on peak frequency (in words): altered peak frequency

## c1ccc2ccccc2c1 [naphthalene, Naphthalene]
[1]
  Effect on beat frequency (in words): positive but generally weak effect

## CCOP(=S)(OCC)Oc1ccc([N+](=O)[O-])cc1 [parathion, Parathion]
[3]
  Effect on mitochondria / mitochondria potential (in words): selectively decreased mitochondria potential

## CC1(C)C(C=C(Cl)Cl)C1C(=O)OCc1cccc(Oc2ccccc2)c1 (centres unmarked) [permethrin, Permethrin]
[2]; [5]
  Cardiotoxic selectivity for peak frequency (selective = ratio ≥3): selective

## c1ccc2c(c1)ccc1ccccc12 [phenanthrene, Phenanthrene]
[1]
  Effect on beat frequency (in words): positive but generally weak effect

## c1cc2ccc3cccc4ccc(c1)c2c34 [pyrene, Pyrene]
[1]
  Effect on beat frequency (in words): positive but generally weak effect
[2]; [5]
  Cardiotoxic selectivity for peak frequency (selective = ratio ≥3): selective

## C=C(C)[C@H]1Cc2c(ccc3c2O[C@@H]2COc4cc(OC)c(OC)cc4[C@@H]2C3=O)O1 [rotenone, Rotenone]
[4]
  Cytotoxicity (in words): highly cytotoxic
[1]; endpoints other than JC-10 at 30 min
  POD values in most other endpoints queried, including cytotoxicity: below 30 μM
[1]
  Ca2+-flux phenotype in words: Negative inotropic effects

## CC(C)(C)C(O)(CCc1ccc(Cl)cc1)Cn1cncn1 (centres unmarked) [tebuconazole, Tebuconazole]
[3]
  Effect on mitochondria / mitochondria potential (in words): selectively decreased mitochondria potential

## O=P(Oc1ccccc1)(Oc1ccccc1)Oc1ccccc1 [triphenyl phosphate, Triphenyl phosphate]
[3]
  Effect on mitochondria / mitochondria potential (in words): selectively decreased mitochondria potential

## CC(C)[C@@H]1NC(=O)[C@H](C)OC(=O)[C@@H](C(C)C)NC(=O)[C@@H](C(C)C)OC(=O)[C@H](C(C)C)NC(=O)[C@H](C)OC(=O)[C@@H](C(C)C)NC(=O)[C@@H](C(C)C)OC(=O)[C@H](C(C)C)NC(=O)[C@H](C)OC(=O)[C@@H](C(C)C)NC(=O)[C@@H](C(C)C)OC1=O [valinomycin, Valinomycin, reference compound]
[4]
  Cytotoxicity (in words): highly cytotoxic
[3]
  Effect on mitochondria / mitochondria potential (in words): strong effect

## Phenol, isopropylated, phosphate (3:1)
[1]
  Shape of concentration response for cardiomyocyte peak frequency: non-monotonic concentration responses
[2]
  Cardiotoxic selectivity for peak frequency (selective = ratio ≥3): selective
